# Reference: patent publication US9914730B2, “Azaquinazoline inhibitors of Atypical protein Kinase C” (Ignyta, Inc., priority 2012, dated 2018)
# Target: T1, full-length human PKCι (Homo sapiens, UniProt P41743)
# T1 construct: Recombinant, full-length human PKCι expressed in Sf21 insect cells is also commercially available; purchased; host or cells: Sf21 insect cells
# T1 sequence (P41743 1-596): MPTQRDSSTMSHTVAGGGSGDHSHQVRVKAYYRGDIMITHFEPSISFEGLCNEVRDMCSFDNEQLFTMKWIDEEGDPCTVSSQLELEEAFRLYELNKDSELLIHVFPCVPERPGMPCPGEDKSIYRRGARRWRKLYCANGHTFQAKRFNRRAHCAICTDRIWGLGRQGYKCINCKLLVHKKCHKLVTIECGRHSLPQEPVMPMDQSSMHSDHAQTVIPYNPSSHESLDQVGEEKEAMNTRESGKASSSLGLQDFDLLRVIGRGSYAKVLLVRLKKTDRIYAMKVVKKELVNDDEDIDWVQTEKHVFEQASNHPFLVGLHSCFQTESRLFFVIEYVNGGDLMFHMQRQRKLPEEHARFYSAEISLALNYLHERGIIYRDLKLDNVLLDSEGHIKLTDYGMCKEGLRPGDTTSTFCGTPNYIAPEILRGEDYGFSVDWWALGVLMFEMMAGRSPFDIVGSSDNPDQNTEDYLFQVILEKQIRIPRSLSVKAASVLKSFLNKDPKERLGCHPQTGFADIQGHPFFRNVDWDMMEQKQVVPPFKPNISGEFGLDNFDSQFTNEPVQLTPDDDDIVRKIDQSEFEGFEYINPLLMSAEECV
# Assay: PKCι IC50 IMAP assay, full-length PKCι at 150 μM ATP
# Assay type: biochemical
# Conditions: read-out: IC50 in IMAP assay against full length PKCi at 150 μM ATP
# How it was run: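 IC50 from IMAP FP (ex 485/em 530 nm) after 60 min room-temperature reaction in pH 7.5 tris buffer with 9 mM MgCl2 and 0.9 mM DTT. Enzyme: full-length Sf21-expressed PKCι (~15 pM); ATP 150 μM, five times KM^APP; FAM-labelled peptide 100 nM; DMSO 4%.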
row,Compound,IC50
1,"CN1CCN(c2cccc(Nc3cc(-c4nc(N5CC[C@H](CO)C5)c5c(C6CC6)cncc5n4)ccn3)c2)CC1 [Example 722, [(S)-1-(5-Cyclopropyl-2-{2-[3-(4-methyl-piperazin-1-yl)-phenylamino]-pyridin-4-yl}-pyrido[3,4-d]pyrimidin-4-yl)-pyrrolidin-3-yl]-methanol]",< 100 nM
2,"N#Cc1ccnc(Nc2cc(-c3nc(N4CCC(O)C(O)C4)c4c(C5CC5)cncc4n3)ccn2)c1 (racemic) [Example 485, (±)-2-{4-[5-Cyclopropyl-4-cis-3,4-dihydroxy-piperidin-1-yl)-pyrido[3,4-d]pyrimidin-2-yl]-pyridin-2-ylamino}-isonicotinonitrile]",< 100 nM
3,"CCn1nc(Nc2cc(-c3nc(N4CCNCC4)c4c(C5CC5)cncc4n3)ccn2)cc1C [Example 780, [4-(5-Cyclopropyl-4-piperazin-1-yl-pyrido[3,4-d]pyrimidin-2-yl)-pyridin-2-yl]-(1-ethyl-5-methyl-1H-pyrazol-3-yl)-amine]",< 100 nM
4,"CN1CCN(c2cccc(Nc3cc(-c4nc(N5CCN(C(N)=O)CC5)c5c(C6CC6)cncc5n4)ccn3)c2)CC1 [Example 687, 4-(5-Cyclopropyl-2-{2-[3-(4-methyl-piperazin-1-yl)-phenylamino]-pyridin-4-yl}-pyrido[3,4-d]pyrimidin-4-yl)-piperazine-1-carboxylic acid amide]",100 to 1000 nM
5,"Fc1cnc(Nc2cc(-c3nc(N4CCNCC4)c4c(C5CC5)cncc4n3)ccn2)c(F)c1 [Example 704, [4-(5-Cyclopropyl-4-piperazin-1-yl-pyrido[3,4-d]pyrimidin-2-yl)-pyridin-2-yl]-(3,5-difluoro-pyridin-2-yl)-amine]",< 100 nM
6,"c1ccc(C2(c3cc4c(-c5nc(N6CCNCC6)c6c(C7CCC7)cncc6n5)ccnc4[nH]3)CCC2)cc1 [Example 2181, 5-Cyclobutyl-2-[2-(1-phenyl-cyclobutyl)-1H-pyrrolo[2,3-b]pyridin-4-yl]-4-piperazin-1-yl-pyrido[3,4-d]pyrimidine]",< 100 nM
7,"N#Cc1ccnc(Nc2cc(-c3nc(N4CCNCC4)c4c(C5CC5)cncc4n3)ccn2)c1 [Example 265, 2-[4-(5-Cyclopropyl-4-piperazin-1-yl-pyrido[3,4-d]pyrimidin-2-yl)-pyridin-2-ylamino]-isonicotinonitrile]",< 100 nM
8,"Fc1cccc(F)c1Nc1cc(-c2nc(NCC3CCNCC3)c3c(C4CC4)cncc3n2)ccn1 [Example 2107, {5-Cyclopropyl-2-[2-(2,6-difluoro-phenylamino)-pyridin-4-yl]-pyrido[3,4-d]pyrimidin-4-yl}-piperidin-4-ylmethyl-amine]",< 100 nM
9,"Fc1cccn2nc(Nc3cc(-c4nc(N5CCNCC5)c5c(C6CC6)cncc5n4)ccn3)nc12 [Example 2032, [4-(5-Cyclopropyl-4-piperazin-1-yl-pyrido[3,4-d]pyrimidin-2-yl)-pyridin-2-yl]-(8-fluoro-[1,2,4]triazolo[1,5-a]pyridin-2-yl)-amine]",< 100 nM
10,"O=C(Cc1c(F)cccc1F)Nc1cc(-c2nc(N3CCNCC3)c3c(C4CC4)cncc3n2)ccn1 [Example 639, N-[4-(5-Cyclopropyl-4-piperazin-1-yl-pyrido[3,4-d]pyrimidin-2-yl)-pyridin-2-yl]-2-(2,6-difluoro-phenyl)-acetamide]",< 100 nM
11,"FC(F)(F)c1cc2c(-c3nc(N4CCOCC4)c4c(C5CC5)cncc4n3)ccnc2[nH]1 [Example 1227, 5-Cyclopropyl-4-morpholin-4-yl-2-(2-trifluoromethyl-1H-pyrrolo[2,3-b]pyridin-4-yl)-pyrido[3,4-d]pyrimidine]",10000 to 40000 nM
12,"C[C@@H](Nc1cc(-c2nc(N3CCNCC3)c3c(C4CC4)cncc3n2)ccn1)c1nc(F)ccc1F [Example 802, [4-(5-Cyclopropyl-4-piperazin-1-yl-pyrido[3,4-d]pyrimidin-2-yl)-pyridin-2-yl]-[(R)-1-(3,6-difluoro-pyridin-2-yl)-ethyl]-amine]",< 100 nM
13,"CNCCNc1nc(-c2ccnc(Nc3c(F)cccc3F)c2)nc2cncc(C3CC3)c12 [Example 775, N-{5-Cyclopropyl-2-[2-(2,6-difluoro-phenylamino)-pyridin-4-yl]-pyrido[3,4-d]pyrimidin-4-yl}-N′-methyl-ethane-1,2-diamine]",< 100 nM
14,"c1cc(-c2nc(N3CCNCC3)c3c(C4CC4)cncc3n2)cc(Nc2nc3ccc(C4CC4)cn3n2)n1 [Example 2012, [4-(5-Cyclopropyl-4-piperazin-1-yl-pyrido[3,4-d]pyrimidin-2-yl)-pyridin-2-yl]-(6-cyclopropyl-[1,2,4]triazolo[1,5-a]pyridin-2-yl)-amine]",< 100 nM
15,"c1ccc(C[C@H]2CNCCN2c2nc(-c3ccncc3)nc3cnccc23)cc1 [Example 38, (2S)-2-benzyl-1-[2-(pyridin-4-yl)-pyrido[3,4-d]-pyrimidin-4-yl]-piperazine]",100 to 1000 nM
16,"CC(C)(c1cc2c(-c3nc(N4CCNCC4)c4c(C5CCC5)cncc4n3)ccnc2[nH]1)C(F)(F)F [Example 2182, 5-Cyclobutyl-4-piperazin-1-yl-2-[2-(2,2,2-trifluoro-1,1-dimethyl-ethyl)-1H-pyrrolo[2,3-b]pyridin-4-yl]-pyrido[3,4-d]pyrimidine]",< 100 nM

# Results, then the compound that gave them:
row,IC50,Compound
1,< 100 nM,"c1ccc2cc(Nc3cc(-c4nc(N5CCNCC5)c5c(C6CC6)cncc5n4)ccn3)ncc2c1 [Example 2060, [4-(5-Cyclopropyl-4-piperazin-1-yl-pyrido[3,4-d]pyrimidin-2-yl)-pyridin-2-yl]-iso[D4],[D3]uinolin-3-yl-amine]"
2,< 100 nM,"COc1cncc2nc(-c3ccnc(Nc4ccc(N5CCN(C)CC5)cc4C)c3)nc(N3CCNCC3)c12 [Example 413, [4-(5-Methoxy-4-piperazin-1-yl-pyrido[3,4-d]pyrimidin-2-yl)-pyridin-2-yl]-[2-methyl-4-(4-methyl-piperazin-1-yl)-phenyl]-amine]"
3,1000 to 10000 nM,"c1ccc(-c2ccc(Nc3cc(-c4nc(N5CCNCC5)c5c(C6CC6)cncc5n4)ccn3)cc2)cc1 [Example 683, Biphenyl-4-yl-[4-(5-cyclopropyl-4-piperazin-1-yl-pyrido[3,4-d]pyrimidin-2-yl)-pyridin-2-yl]-amine]"
4,< 100 nM,"COc1cncc2nc(-c3ccnc(Nc4ccc(Cl)cn4)c3)nc(N3CCNCC3)c12 [Example 366, (5-Chloro-pyridin-2-yl)-[4-(5-methoxy-4-piperazin-1-yl-pyrido[3,4-d]pyrimidin-2-yl)-pyridin-2-yl]-amine]"
5,< 100 nM,"COc1cncc2nc(-c3ccnc(NC(=O)C4CC4)c3)nc(N3CCNCC3)c12 [Example 216, Cyclo-propane-carboxylic acid[4-(5-methoxy-4-piperazin-1-yl-pyrido[3,4-d]pyrimidin-2-yl)-pyridin-2-yl]-amide]"
6,< 100 nM,"c1ccc2cc(Nc3cc(-c4nc(N5CCNCC5)c5c(C6CC6)cncc5n4)ccn3)ccc2c1 [Example 2050, [4-(5-Cyclopropyl-4-piperazin-1-yl-pyrido[3,4-d]pyrimidin-2-yl)-pyridin-2-yl]-naphthalen-2-yl-amine]"
7,< 100 nM,"COc1cncc2nc(-c3ccnc(Nc4ccc(C(N)=O)cn4)c3)nc(N3CCNCC3)c12 [Example 380, 6-[4-(5-Methoxy-4-piperazin-1-yl-pyrido[3,4-d]pyrimidin-2-yl)-pyridin-2-ylamino]-nicotinamide]"
8,< 100 nM,"COc1cncc2nc(-c3ccnc(NC(=O)c4ccccc4)c3)nc(N3CCNCC3)c12 [Example 212, N-[4-(5-Methoxy-4-piperazin-1-yl-pyrido[3,4-d]pyrimidin-2-yl)-pyridin-2-yl]-benzamide]"
9,100 to 1000 nM,"CC(=O)Nc1cc(-c2nc(N3CCNCC3)c3c(Cl)cncc3n2)ccn1 [Example 251, N-[4-(5-Chloro-4-piperazin-1-yl-pyrido[3,4-d]pyrimidin-2-yl)-pyridin-2-yl]-acetamide]"
10,< 100 nM,"Fc1ccccc1Nc1cc(-c2nc(N3CCNCC3)c3c(Nc4ccccc4F)cncc3n2)ccn1 [Example 248, (2-Fluoro-phenyl)-{2-[2-(2-fluoro-phenylamino)-pyridin-4-yl]-4-piperazin-1-yl-pyrido[3,4-d]pyrimidin-5-yl}-amine]"
11,100 to 1000 nM,"COc1cncc2nc(-c3ccnc(Nc4ccccc4)c3)nc(N3CCN4C(=O)OC[C@H]4C3)c12 [Example 435, (R)-7-[5-Methoxy-2-(2-phenylamino-pyridin-4-yl)-pyrido[3,4-d]pyrimidin-4-yl]-hexahydro-oxazolo[3,4-a]pyrazin-3-one]"
12,1000 to 10000 nM,"COc1cncc2nc(-c3ccnc(Nc4ccccc4)c3)nc(N3CCC(C)(O)CC3)c12 [Example 223, 1-[5-Mcthoxy-2-(2-phenylamino-pyridin-4-yl)-pyrido[3,4-d]pyrimidin-4-yl]-4-methyl-piperidin-4-ol]"
13,< 100 nM,"COc1cncc2nc(-c3ccnc(Nc4cc(F)ccc4F)c3)nc(N3CCNCC3)c12 [Example 440, (2,5-Difluoro-phenyl)-[4-(5-methoxy-4-piperazin-1-yl-pyrido[3,4-d]pyrimidin-2-yl)-pyridin-2-yl]-amine]"
